Measurements: patent US20170298380A1, “IMIDAZOLINONE HERBICIDE RESISTANT BORAGE” (Bioriginal Food & Science Corp., priority 2016, published 2017)
Entries after “also recorded” stand apart in the source; their conditions may differ. Where two headings read alike, the source gives them in different places.

How the values were obtained:
[1] = test system: M4 homozygous imidazolinone-resistant borage (AHAS1 mutant); type: in vivo, Borago officinalis; details: AHAS1 mutant line, 2X of the recommended rate, 21 days after spraying
Description: Adjuvant reagent for each herbicide was added into spray solution accordingly. Sprayed M4 borage plants were visually evaluated at 21 days after spraying by comparing with wild-type controls.

borage seeds (M1) = type: in vivo, Borago officinalis
Description: Approximately 164000 borage seeds were divided into 6 groups for mutagenesis. The seeds (M1) were soaked in 0.5%, 1.0% and 1.5% (v/v) of EMS solutions for 8 hours and 16 hours respectively, and then rinsed with tap water for 4 hours. After washing, the seeds are dried with paper towel. The mutagenized seeds were sowed in 48 plots in a research farm in Saskatoon, SK, in June, 2012. Each plot was 7.5×1.5 m in size and sowed 86 g of mutagenized seeds. M1 borage plants were grown to maturity and M2 seeds were harvested by groups according to the EMS treatments.

[2] = test system: AHAS enzyme of homozygous resistant borage (AHAS1 mutant); assay: In vitro AHAS activity assay, resistant (AHAS1 mutant) borage leaf protein extract; type: biochemical, Borago officinalis; details: across all imazamox concentrations (0-625 μM)
From the text: (§1) The herbicide imazamox is an inhibitor of the AHAS enzyme. […] It has been shown from the above Examples that the AHAS1 mutant borage line can tolerate two times the recommended dosage of “Solo” herbicide and the tolerance is caused by the single nucleotide mutation of the AHAS1 gene. As such, the AHAS activity level of the mutant plants would provide further evidence to support the conclusion. AHAS enzyme activity is generally measured using a discontinuous colorimetric assay based on the method developed by Singh et al. (Singh B K, et al. Assay of acetohydroxyacid synthase. Analytical Biochemistry 171 (1988) 173-179). In this method, the crude protein is incubated with the substrate for a fixed time to generate intermediate acetolactate that is then converted to acetoin under decarboxylation. Finally, the reaction of acetoin with creatine and α-naphthol forms a pink-colored product which can be measured at 520 nm wavelength in a spectrometer. As a result, the AHAS activity level can be estimated based on the color density. See Duggleby R G and Pang S S. (2000) supra. […]
(§2) The gummy protein layer was re-dissolved in 1.4 mL incubation buffer containing 50 mM K2HPO4 buffer (pH 7.0), 100 mM sodium pyruvate, 10 mM MgCl2, 1 mM TPP and 1 μM FAD. The amount of protein in each sample was determined immediately by the Bio-Rad protein assay using a dye reagent (#500-0006). […]

[3] = test system: AHAS enzyme of susceptible borage (wild-type); assay: In vitro AHAS activity assay, susceptible (wild-type) borage leaf protein extract; type: biochemical, Borago officinalis; details: 625 μM imazamox
From the text: as §1, §2

CCc1cnc(C2=NC(C)(C(C)C)C(=O)N2)c(C(=O)O)c1 (stereo not shown) [imazethapyr, 2-[4.5-dihydro-4-methyl-4-(1-methylethyl)-5-oxo-1H-imidazol-2-yl]-5-ethyl-3-pyridinecarboxylic acid]
level of resistance / tolerance (in words) [1]: strong resistance; also recorded: equally strong resistant level

CCOS(C)(=O)=O [EMS, ethyl methanesulfonate]
Germination Rate (%) (borage seeds (M1); 0.5% EMS 8 hrs): 19%
Germination Rate (%) (borage seeds (M1); 0.5% EMS 16 hrs): 8%
Germination Rate (%) (borage seeds (M1); 1.0% EMS 8 hrs): 15%
Germination Rate (%) (borage seeds (M1); 1.0% EMS 16 hrs): 9%
Germination Rate (%) (borage seeds (M1); 1.5% EMS 8 hrs): 11%
Germination Rate (%) (borage seeds (M1); 1.5% EMS 16 hrs): 8%
germination rate (borage seeds (M1); all EMS-treated M1 seeds sown in the field): about 12%
sterility of M1 (borage seeds (M1); in vivo): pronounced sterility

COc1nn(C(=O)[N-]S(=O)(=O)c2ccccc2OC(F)(F)F)c(=O)n1C.[Na+] [flucarbazone sodium]
level of resistance / tolerance (in words) [1]: some tolerance

COCc1cnc(C2=NC(C)(C(C)C)C(=O)N2)c(C(=O)O)c1 (stereo not shown) [imazamox, 2-[4,5-dihydro-4-methyl-4-(1-methylethyl)-5-oxo-1H-imidazol-2-yl]-5-(methoxymethl)-3-pyridinecarboxylic acid.]
AHAS activity of mutant compared with wild type [2]: significantly higher AHAS activity than the wild type borage
level of resistance / tolerance (in words) [1]: strong resistance; also recorded: equally strong resistant level
AHAS activity retained [3]: zero and completely inhibited
